What was measured:
HeLa cells [1] = test: Viable cell counting (WST-1), cell survival rate, HeLa cells; type: cell-based
Description: (§1) Viable cell counting was carried out by means of a Cell Counting Kit (product of Dojindo Laboratories) based on WST-1 assay. […] Thereafter, absorbance was measured at 450 nm. A cell count vs. A450 standard curve was prepared on the basis of a separately prepared dilution series of different numbers of inoculated cells, and the number of viable cells was estimated by use of the standard curve.

HT1080 cells [2] = test: Cytotoxicity score under microscope after DNA transfection, HT1080 cells; type: cell-based; parameters: scale not given here
From the text: (§2) The procedure of Test Example 5 was repeated, except that HeLa cells were replaced with HT1080 cells.
(§3) The procedure of Test Example 7 was repeated, except that HeLa cells were replaced with HT1080 cells.

HeLa cells [3] = test: DNA (pCMV-SPORT-βgal) transfection into HeLa cells: β-gal activity; details: HeLa
Description: (§4) HeLa cells were inoculated into a 96-well plate (7,500 cells/100 μL/well), followed by culturing for about 24 hours. DNA (pCMV-SPORT-βgal) was diluted with a DMEM medium, to thereby prepare a DNA-diluted solution having a DNA concentration of 8 μg/mL (for the case of 200 ng/well). […] The thus-obtained solution or Lipofectamine 2000 as a positive control (product of Invitrogen) was diluted with a DMEM medium so that the amount of the reconstituted liposome solution or Lipofectamine 2000 added to cells was “Amount of liposomes added (μL/well)” shown in Table 9 or 10. Immediately after dilution, the DNA-diluted solution (25 μL) was added to and mixed with the liposome-diluted solution (25 μL), and the mixture was allowed to stand still at room temperature for 30 minutes, to thereby form a DNA/liposome complex. The DNA/liposome complex (50 μL) was added to the inoculated HeLa cells (about 70 to about 90% confluent), to thereby initiate transfection. After culturing at 37° C. and 5% CO2 for one hour, a 10% FBS/DMEM medium (100 μL) was added to the culture liquid, followed by culturing at 37° C. and 5% CO2 for about 21 hours.
The culture supernatant was removed, and the cells were washed with PBS(−). Thereafter, determination of β-galactosidase (hereinafter may be abbreviated as “β-gal”) activity, quantitative determination of protein, and viable cell counting were carried out as described below.
After complete removal of PBS through suction, a lysis buffer (30 μL) was added to the cells, and the mixture was stirred and then allowed to stand still at −80° C. for 30 minutes or longer for freezing. After rapid thawing in a water bath at 37° C., the mixture was again allowed to stand still at −80° C. for 30 minutes or longer for freezing, followed by rapid thawing in a water bath at 37° C. Thereafter, centrifugation was carried out (2,000 g×10 minutes), and the resultant supernatant (sample) (10 μL) was added to a 96-well microplate.
Determination of β-gal activity was carried out by means of a β-gal assay kit (product of Invitrogen). […] A 2-Me-containing cleavage buffer was added (50 μL/well) to the sample or each of the standard-diluted solutions (10 μL), and 4 mg/mL aqueous ONPG solution was added (17 μL/well), followed by incubation at 37° C. for 30 minutes. After completion of incubation, a stop buffer was added (120 μL/well) for termination of reaction, and absorbance was measured at 405 nm.
(§5) Each of the enhancers shown in Table 13 was diluted with a DMEM medium to different concentrations so that the amount of the enhancer finally added to cells was “Enhancer amount (μg/well)” shown in Table 13. […] The thus-diluted liposome solution was added to an equiamount of the above-diluted enhancer, followed by incubation at room temperature for 20 minutes. […] Subsequently, cytotoxicity was evaluated according to the aforementioned scores, and determination of β-gal activity, quantitative determination of protein, and viable cell counting were carried out.

HT1080 cells [4] = test: Viable cell counting (WST-1), cell survival rate, HT1080 cells; type: cell-based
Description: as §1, §2, §3

HT1080 cells [5] = test: DNA (pCMV-SPORT-βgal) transfection into HT1080 cells: β-gal activity; type: cell-based
From the text: as §2, §3

HeLa cells [6] = test: Cytotoxicity score under microscope after DNA transfection, HeLa cells; type: cell-based
Description: as §4, §5

[7] = Formulation Example 4 0.38 μL/well, enhancer 0.625 μg/well
[8] = Formulation Example 4 0.38 μL/well, enhancer 1.25 μg/well
[9] = Formulation Example 4 0.38 μL/well, enhancer 2.5 μg/well
[10] = Formulation Example 4 0.38 μL/well, enhancer 5 μg/well
[11] = Formulation Example 4 0.38 μL/well, enhancer 10 μg/well
[12] = Formulation Example 4 0.75 μL/well, enhancer 0.625 μg/well
[13] = Formulation Example 4 0.75 μL/well, enhancer 1.25 μg/well
[14] = Formulation Example 4 0.75 μL/well, enhancer 2.5 μg/well
[15] = Formulation Example 4 0.75 μL/well, enhancer 5 μg/well
[16] = Formulation Example 4 0.75 μL/well, enhancer 10 μg/well

## poly L-lysine
HeLa cells [1]; [7]
  Cell survival rate: 62%
HeLa cells [1]; [8]
  Cell survival rate: 71%
HeLa cells [1]; [9]
  Cell survival rate: 70%
HeLa cells [1]; [10]
  Cell survival rate: 70%
HeLa cells [1]; [11]
  Cell survival rate: 76%
HeLa cells [1]; [12]
  Cell survival rate: 73%
HeLa cells [1]; [13]
  Cell survival rate: 94%
HeLa cells [1]; [14]
  Cell survival rate: 99%
HeLa cells [1]; [15]
  Cell survival rate: 97%
HeLa cells [1]; [16]
  Cell survival rate: 99%
HT1080 cells [2]; [7]
  Cytotoxicity score: 2.0
HT1080 cells [2]; [8]
  Cytotoxicity score: 2.0
HT1080 cells [2]; [9]
  Cytotoxicity score: 1.0
HT1080 cells [2]; [10]
  Cytotoxicity score: 0.5
HT1080 cells [2]; [11]
  Cytotoxicity score: 1.0
HT1080 cells [2]; [12]
  Cytotoxicity score: 2.5
HT1080 cells [2]; [13]
  Cytotoxicity score: 2.0
HT1080 cells [2]; [14]
  Cytotoxicity score: 1.5
HT1080 cells [2]; [15]
  Cytotoxicity score: 0.5
HT1080 cells [2]; [16]
  Cytotoxicity score: 1.0
HeLa cells [3]; [7]
  β-gal activity: 23.9 mU/well
HeLa cells [3]; [8]
  β-gal activity: 3.4 mU/well
HeLa cells [3]; [9]
  β-gal activity: 0.6 mU/well
HeLa cells [3]; [10]
  β-gal activity: 0.6 mU/well
HeLa cells [3]; [11]
  β-gal activity: 0.1 mU/well
HeLa cells [3]; [12]
  β-gal activity: 54.1 mU/well
HeLa cells [3]; [13]
  β-gal activity: 6.6 mU/well
HeLa cells [3]; [14]
  β-gal activity: 1.5 mU/well
HeLa cells [3]; [15]
  β-gal activity: 0.7 mU/well
HeLa cells [3]; [16]
  β-gal activity: 0.2 mU/well
HT1080 cells [4]; [7]
  Cell survival rate: 53%
HT1080 cells [4]; [8]
  Cell survival rate: 72%
HT1080 cells [4]; [9]
  Cell survival rate: 78%
HT1080 cells [4]; [10]
  Cell survival rate: 65%
HT1080 cells [4]; [11]
  Cell survival rate: 80%
HT1080 cells [4]; [12]
  Cell survival rate: 62%
HT1080 cells [4]; [13]
  Cell survival rate: 75%
HT1080 cells [4]; [14]
  Cell survival rate: 82%
HT1080 cells [4]; [15]
  Cell survival rate: 86%
HT1080 cells [4]; [16]
  Cell survival rate: 82%
HT1080 cells [5]; [7]
  β-gal activity: 76.7 mU/well
HT1080 cells [5]; [8]
  β-gal activity: 49.5 mU/well
HT1080 cells [5]; [9]
  β-gal activity: 25.7 mU/well
HT1080 cells [5]; [10]
  β-gal activity: 12.2 mU/well
HT1080 cells [5]; [11]
  β-gal activity: 8.8 mU/well
HT1080 cells [5]; [12]
  β-gal activity: 98.0 mU/well
HT1080 cells [5]; [13]
  β-gal activity: 93.8 mU/well
HT1080 cells [5]; [14]
  β-gal activity: 59.2 mU/well
HT1080 cells [5]; [15]
  β-gal activity: 42.7 mU/well
HT1080 cells [5]; [16]
  β-gal activity: 25.3 mU/well
HeLa cells [6]; [7]
  Cytotoxicity score: 0.5
HeLa cells [6]; [8]
  Cytotoxicity score: 0.0
HeLa cells [6]; [9]
  Cytotoxicity score: 0.0
HeLa cells [6]; [10]
  Cytotoxicity score: 0.5
HeLa cells [6]; [11]
  Cytotoxicity score: 0.5
HeLa cells [6]; [12]
  Cytotoxicity score: 1.0
HeLa cells [6]; [13]
  Cytotoxicity score: 0.5
HeLa cells [6]; [14]
  Cytotoxicity score: 0.0
HeLa cells [6]; [15]
  Cytotoxicity score: 0.0
HeLa cells [6]; [16]
  Cytotoxicity score: 0.5
